Test results: publication PMC5321741, “Arylmethylamino steroids as antiparasitic agents” (Nature Communications, 2017)
Read-outs that look alike come from different tables or passages of the source.

How the values were obtained:
[1] = test system: P. falciparum (strain 3D7); experiment: 72 h 3H-hypoxanthine incorporation assay, asexual blood stages; format: cell-based, Plasmodium falciparum; details: Plasmodium falciparum
[2] = test system: haem; experiment: ESI-MS collision-induced dissociation of haem adducts; format: binding; details: 50 µM haem and 50 µM substrate; for DV50 (dissociation voltage at 50%) of haem adduct: ESI-CID, 20 V to 400 V; for Bottom plateau (adduct remaining at 400 V): fragmentor voltage 400 V
Description: Compound Molar Adduct DV50 Bottom Dissociation mass [Haem+S] (V) plateau Constant
Supplementary Table 7. ESI-MS-CID data (m/z, calculated DV50 = dissociation voltage at 50% and % bottom plateau) of the [haematin-drug]+ adducts and dissociation constants (KD, µM) of the haematin-drug complexes measured with absorption spectrophotometric titrations.
Conditions: 50 µM haem and 50 µM substrate in H2O/CH3CN (5/95) + 0.1% formic acid.
Stability responses of the haem substrate adduct were obtained via ESI-CID experiments.
Positive mode; fragmentor voltage from 20 V to 400 V with 20 V increments. […]
- 41/120 g), and complete dissolution was achieved using an ultrasonic bath. All solutions were protected from daylight to avoid any photochemical degradation. All the physiochemical measurements were carried out at 25.0(2) °C. […]
Electrospray mass spectrometric measurements stopping point
Electrospray mass spectra of the haem complexes were obtained with an Agilent Technologies 6120 quadrupole equipped with an electrospray (ESI) interface. For

[3] = cytotoxicity on HeLa cells; format: cell-based; details: human, HeLa cells
Description: (§1) Compounds were tested for their antiproliferative activity on HUVEC and K-562 cells and for cytotoxicity on HeLa cells using standard protocols. K-562 (DSM ACC 10), HUVEC (ATCC CRL-1730), and HeLa (DSM ACC 57) cells were cultured as described previously. To assay the antiproliferative and cytotoxic effect, procedures were carried out as described before. In brief, for each experiment with K-562 and HeLa ∼10,000 cells were seeded per well of the 96-well microplates. For the cytotoxicity assay, the HeLa cells were preincubated for 48 h without the test substances. Cells were incubated for 72 h at 37 °C in a humidified atmosphere and 5% CO2. Suspension cultures of K-562 in microplates were analysed by an electronic cell analyzer system CASY 1 (SCHÄRFE, Reutlingen, Germany). The monolayer of the HUVEC and HeLa cells were fixed by glutaraldehyde (MERCK) and stained with a 0.05% solution of methylene blue (SERVA). After gently washing, the stain was eluted by 0.2 ml of 0.33 N HCl in the wells. The optical densities were measured at 660 nm in a microplate reader. The calculations of the different values of GI50 and CC50 were performed with the software Magellan (TECAN).

[4] = test system: K-562; experiment: antiproliferative activity on K-562 cells; format: cell-based; details: Homo sapiens, K562, 72 h
Description: as §1

[5] = test system: HUVEC; experiment: antiproliferative activity on HUVEC cells; format: cell-based; details: Homo sapiens, HUVEC, 72 h
Description: as §1

[6] = 3D7, non-steroid-derived analogs, read-out: IC50 on P. falciparum 3D7 asexual blood stages
[7] = 3D7, 72 h 3H-hypoxanthine incorporation, asexual blood stages, read-out: Antiplasmodial activity IC50 Pf (3D7)

Oc1ccccc1CNc1ccccc1 [19c]
IC50 [1, 6]: > 15 µM

COc1ccc2c(c1)CCC1C2CC[C@@]2(C)C1CC[C@@H]2N (stereo partly shown) [2a]
IC50 [1, 7]: > 1 µM | DV50 (dissociation voltage at 50%) of haem adduct [2]: 210 V | Bottom plateau (adduct remaining at 400 V) [2]: 1.8%

COc1ccc2c(c1)CCC1C2CC[C@@]2(C)C1CC[C@@H]2/N=C/c1ccccc1O (stereo partly shown) [2b]
IC50 [1, 7]: > 2.5 µM

Oc1ccccc1CNC1CCCCC1 [16c]
IC50 [1, 6]: > 6 µM

COc1ccc2c(c1)CCC1C2CC[C@@]2(C)C1C[C@@H](NCc1cc(Cl)ccc1O)[C@@H]2O (stereo partly shown) [7s]
IC50 [1, 7]: 0.055 µM

Oc1cc2ccccc2cc1/C=N/c1ccc2ccc3cccc4ccc1c2c34 [20n]
IC50 [1, 7]: > 13 µM

COc1ccc2c(c1)CCC1C2CC[C@]2(C)C1C[C@@H](NCc1ccccc1O)[C@@H]2O (stereo partly shown) [10c]
CC50 at 72 h [3]: 11.5 µM | IC50 [1, 7]: 0.084 µM | GI50 [4]: 2.5 µM | GI50 [5]: 2.9 µM

COc1ccc2c(c1)CCC1C2CC[C@@]2(C)C1CC[C@H]2N (stereo partly shown) [1a]
IC50 [1, 7]: > 1 µM | DV50 (dissociation voltage at 50%) of haem adduct [2]: 218 V | Bottom plateau (adduct remaining at 400 V) [2]: 1.2%

COc1ccc2c(c1)CCC1C2CC[C@@]2(C)C1C[C@H](NCc1ccccc1O)[C@H]2O (stereo partly shown) [6c]
CC50 at 72 h [3]: 11.3 µM | IC50 [1, 7]: 0.676 µM | GI50 [4]: 2.5 µM | GI50 [5]: 4.4 µM

CCN(CC)Cc1cc(Nc2ccnc3cc(Cl)ccc23)ccc1O [amodiaquine, reference compound]
DV50 (dissociation voltage at 50%) of haem adduct [2]: 212 V | Bottom plateau (adduct remaining at 400 V) [2]: 7%

COc1ccc2c(c1)CCC1C2CC[C@@]2(C)C1CC[C@@H]2NCc1cc(Cl)ccc1O (stereo partly shown) [2s]
IC50 [1, 7]: 0.062 µM

COc1ccc2c(c1)CCC1C2CC[C@@]2(C)C1CC[C@H]2/N=C/c1ccccc1O (stereo partly shown) [1b]
IC50 [1, 7]: > 2.5 µM

CCN(CC)c1ccc(CN[C@H]2CCC3C4CCc5cc(OC)ccc5C4CC[C@@]32C)c(O)c1 (stereo partly shown) [2q]
IC50 [1, 7]: 0.713 µM

Oc1cc2ccccc2cc1CNc1ccc2ccc3cccc4ccc1c2c34 [20o]
IC50 [1, 7]: > 13 µM

CC(C)CCC[C@@H](C)[C@H]1CCC2C3CCC4C[C@@H](O)[C@@H](O)[C@H](NCc5ccccc5O)[C@]4(C)C3CC[C@@]21C (stereo partly shown) [12c]
CC50 at 72 h [3]: 38 µM | IC50 [1, 7]: 4.36 µM | GI50 [4]: 16.5 µM | GI50 [5]: 12.4 µM

COc1ccc2c(c1)CCC1C2CC[C@@]2(C)C1CC[C@@H]2/N=C/c1cc2ccccc2cc1O (stereo partly shown) [2n]
IC50 [1, 7]: 5.54 µM

Oc1ccccc1CNC12CC3CC(CC(C3)C1)C2 [18c]
IC50 [1, 6]: 4 µM

COc1ccc2c(c1)CCC1C2CCC2(C)C(NCc3cccc(O)c3)CCC12 (stereo not shown) [1e]
IC50 [1, 7]: 0.434 µM

COc1ccc2c(c1)CCC1C2CC[C@@]2(C)C1C[C@@H](NCc1ccccc1O)[C@@H]2O (stereo partly shown) [7c]
CC50 at 72 h [3]: 10.1 µM | IC50 [1, 7]: 0.12 µM | GI50 [4]: 2 µM | GI50 [5]: 1.2 µM

COc1ccc2c(c1)CCC1C2CC[C@@]2(C)C1CC[C@@H]2NCc1c(O)ccc2ccccc12 (stereo partly shown) [2m]
IC50 [1, 7]: 0.183 µM

Oc1ccccc1CNC1CCCC1 [15c]
IC50 [1, 6]: > 6 µM

COc1ccc2c(c1)CCC1C2CC[C@]2(C)C[C@@H](N)CC12 (stereo partly shown) [4a]
IC50 [1, 7]: > 1 µM

COc1ccc2c(c1)CCC1C2CC[C@@]2(C)C1C[C@H](NCc1cc(C(C)(C)C)cc(C(C)(C)C)c1O)[C@H]2O (stereo partly shown) [6w]
IC50 [1, 7]: 1.62 µM

COc1ccc2c(c1)CCC1C2CC[C@@]2(C)C1C[C@H](NCc1ccccc1O)[C@@H]2O (stereo partly shown) [8c]
CC50 at 72 h [3]: 5.9 µM | IC50 [1, 7]: 0.224 µM | GI50 [4]: 0.5 µM | GI50 [5]: 2.5 µM

COc1ccc2c(c1)CCC1C2CC[C@@]2(C)C1C[C@H](/N=C/c1ccccc1O)[C@@H]2O (stereo partly shown) [8b]
IC50 [1, 7]: > 2.5 µM

COc1ccc2c(c1)CCC1C2CC[C@]2(C)C[C@H](NCc3ccccc3O)CC12 (stereo partly shown) [3c]
CC50 at 72 h [3]: 20.7 µM | IC50 [1, 7]: 0.042 µM | GI50 [4]: 3.8 µM | GI50 [5]: 4.1 µM

C=CC1=C(C)c2cc3[n-]c(cc4[n-]c(cc5nc(cc1n2)C(C)=C5C=C)c(C)c4CCC(=O)O)c(CCC(=O)O)c3C.O.[Fe+2] [hematin, reference compound]
DV50 (dissociation voltage at 50%) of haem adduct [2]: 329 V | Bottom plateau (adduct remaining at 400 V) [2]: ~ 28%

Oc1ccccc1CNC1CCCCCCC1 [17c]
IC50 [1, 7]: 2 µM | IC50 [1, 6]: ~2 µM

COc1ccc2c(c1)CCC1C2CC[C@]2(C)C[C@@H](NCc3ccccc3O)CC12 (stereo partly shown) [4c]
CC50 at 72 h [3]: 12 µM | IC50 [1, 7]: 0.063 µM | GI50 [4]: 2.6 µM | GI50 [5]: 3.1 µM

CCN(CC)c1ccc(/C=N/[C@H]2CCC3C4CCc5cc(OC)ccc5C4CC[C@@]32C)c(O)c1 (stereo partly shown) [2p]
IC50 [1, 7]: > 5 µM

COc1ccc2c(c1)CCC1C2CC[C@]2(C)C[C@H](N)CC12 (stereo partly shown) [3a]
IC50 [1, 7]: > 1 µM

COc1ccc2c(c1)CCC1C2CCC2(C)C(NCc3ccccc3OC)CCC12 (stereo not shown) [1i]
IC50 [1, 7]: 0.872 µM

COc1ccc2c(c1)CCC1C2CC[C@]2(C)C1CC(NCc1ccccc1O)[C@@H]2O (stereo partly shown) [9c]
CC50 at 72 h [3]: 48.8 µM | IC50 [1, 7]: 0.999 µM | GI50 [4]: 8.4 µM | GI50 [5]: 11.2 µM

COc1ccc2c(c1)CCC1C2CCC2(C)C(NCc3ccc(O)cc3)CCC12 (stereo not shown) [1g]
IC50 [1, 7]: 0.116 µM

Oc1ccccc1/C=N/c1ccc2ccc3cccc4ccc1c2c34 [20b]
IC50 [1, 7]: > 15 µM

COc1ccc2c(c1)CCC1C2CC[C@@]2(C)C1CC[C@H]2NCc1cc(Cl)ccc1O (stereo partly shown) [1s]
IC50 [1, 7]: 0.011 µM

COc1ccc2c(c1)CCC1C2CC[C@]2(C)C1C[C@H](NCc1ccccc1O)[C@@H]2O (stereo partly shown) [11c]
CC50 at 72 h [3]: 6.4 µM | IC50 [1, 7]: 0.141 µM | GI50 [4]: 0.1 µM | GI50 [5]: 22 µM

COc1ccc2c(c1)CCC1C2CC[C@@]2(C)C1C[C@@H](NCc1cc(Cl)ccc1O)[C@H]2O (stereo partly shown) [5s]
IC50 [1, 7]: 0.099 µM

COc1ccc2c(c1)CCC1C2CC[C@@]2(C)C1CC[C@@H]2NCc1cc([N+](=O)[O-])ccc1O (stereo partly shown) [2u]
IC50 [1, 7]: 0.114 µM

COc1ccc2c(c1)CCC1C2CC[C@@]2(C)C1CC[C@@H]2NCc1cccc(O)c1 (stereo partly shown) [2e]
IC50 [1, 7]: 0.741 µM

COc1ccc(CNC2CCC3C4CCc5cc(OC)ccc5C4CCC23C)cc1 (stereo not shown) [1k]
IC50 [1, 7]: 1.01 µM

COc1ccc2c(c1)CCC1C2CC[C@@]2(C)C1C[C@@H](NCc1ccccc1O)[C@H]2O (stereo partly shown) [5c]
CC50 at 72 h [3]: 11.3 µM | IC50 [1, 7]: 0.16 µM | GI50 [4]: 2 µM | GI50 [5]: 2.2 µM
